# Laboratory results from patent publication US20260042762A1 (Kymera Therapeutics, Inc., priority 2018, published 2026).
# Structures can show the parent of a compound that is named as a salt.
# Target: T1, MerTK (Homo sapiens, UniProt Q12866)
# T1 construct: endogenous in cells; host or cells: Jurkat cells
# T1 sequence (Q12866 21-999): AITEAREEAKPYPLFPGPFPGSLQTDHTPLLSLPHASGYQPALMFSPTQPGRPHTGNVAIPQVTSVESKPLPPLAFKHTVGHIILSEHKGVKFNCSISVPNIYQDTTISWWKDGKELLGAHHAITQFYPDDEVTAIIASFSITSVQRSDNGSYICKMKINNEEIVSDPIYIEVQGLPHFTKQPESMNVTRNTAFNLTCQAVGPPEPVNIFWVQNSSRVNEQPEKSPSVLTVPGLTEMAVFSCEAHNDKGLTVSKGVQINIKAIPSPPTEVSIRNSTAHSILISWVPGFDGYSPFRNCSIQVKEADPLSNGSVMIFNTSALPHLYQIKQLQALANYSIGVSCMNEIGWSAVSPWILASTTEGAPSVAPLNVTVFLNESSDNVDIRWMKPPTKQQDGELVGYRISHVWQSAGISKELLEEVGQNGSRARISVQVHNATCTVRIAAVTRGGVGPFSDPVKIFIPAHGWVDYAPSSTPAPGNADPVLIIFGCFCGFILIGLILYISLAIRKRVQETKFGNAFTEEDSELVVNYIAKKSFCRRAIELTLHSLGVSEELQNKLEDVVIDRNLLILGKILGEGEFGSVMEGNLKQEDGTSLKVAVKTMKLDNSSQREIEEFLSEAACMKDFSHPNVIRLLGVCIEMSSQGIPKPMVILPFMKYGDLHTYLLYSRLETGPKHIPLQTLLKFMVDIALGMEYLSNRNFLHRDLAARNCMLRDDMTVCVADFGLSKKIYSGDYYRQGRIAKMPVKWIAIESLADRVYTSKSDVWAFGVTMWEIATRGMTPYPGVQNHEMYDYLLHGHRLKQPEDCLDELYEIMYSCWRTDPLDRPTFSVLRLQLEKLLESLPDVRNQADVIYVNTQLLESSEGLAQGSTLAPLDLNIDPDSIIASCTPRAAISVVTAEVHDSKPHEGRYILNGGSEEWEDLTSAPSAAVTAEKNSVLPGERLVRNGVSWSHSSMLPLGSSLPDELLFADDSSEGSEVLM
# Assay: MerTk degradation in Jurkat cells (Western blot)
# Format: cell-based
# Conditions: Jurkat, 4 h, 0.001-1 μM, 4 hour-incubation at 37° C., read-out: Jurkat Max % MerTK Degradation
# Outline: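 MerTK degradation was read by near-infrared Western blot, normalized to actin, in BCA-quantified lysates of Jurkat cells exposed to 0.001-1 μM compound for 4 h at 37 °C.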
row,SMILES,Dmax [%]
1,"Cn1c(=O)n([C@H]2CCC(=O)NC2=O)c2ccc(COC3CCN(C4CCN(Cc5ccc(-c6cn([C@H]7CC[C@H](O)CC7)c7nc(NCCC(F)(F)F)ncc67)cc5)CC4)CC3)cc21 [I-157, 3-[3-methyl-2-oxo-5-[([1-[(4-[7-[trans-4-hydroxycyclohexy1]-2-[(3,3,3-trifluoropropyl)amino]pyrrolo[2,3-d]pyrimidin-5-yl]phenyl)methyl]-[1,4-bipiperidin]-4-yl]oxy)methyl]-1,3-benzodiazol-1-y1]piperidine-2,6-dione; formic acid]",> 50
2,"CCCCNc1ncc2c(-c3ccc(CNCCCc4ccc5c(c4)n(C)c(=O)n5[C@H]4CCC(=O)NC4=O)cc3)cn([C@H]3CC[C@H](O)CC3)c2n1 [I-46, 3-(5-[3-[([4-[2-(butylamino)-7-[trans-4-hydroxycyclohexyl]-7H-pyrrolo[2,3-d]pyrimidin-5-yl]phenyl]methyl)amino]propyl]-3-methyl-2-oxo-2,3-dihydro-1H-1,3-benzodiazol-1-yl)piperidine-2,6-dione; formic acid]",> 50
3,"Cn1c(=O)n(C2CCC(=O)NC2=O)c2ccc(CN3CCN([C@H]4CCN(Cc5ccc(-c6cn([C@H]7CC[C@H](O)CC7)c7nc(NCCC(F)(F)F)ncc67)cc5)C4)CC3)cc21 (stereo partly drawn) [I-158, 3-[3-methyl-2-oxo-5-([4-[(3R)-1-[(4-[7-[trans-4-hydroxycyclohexy1]-2-[(3,3,3-trifluoropropyl)amino]pyrrolo[2,3-d]pyrimidin-5-y1]phenyl)methyl]pyrrolidin-3-y1]piperazin-1-yl]methyl)-1,3-benzodiazol-1-yl]piperidine-2,6-dione]",> 50
4,"O=C1CC[C@H](n2c3cc(CCCOCCOCCN4CCN(Cc5ccc(-c6cn([C@H]7CC[C@H](O)CC7)c7nc(NCCC(F)(F)F)ncc67)cc5)CC4)ccc3c3cccnc32)C(=O)N1 [I-127, 3-(7-[3-[2-(2-[4-[(4-[7-[trans-4-hydroxycyclohexy1]-2-[(3,3,3-trifluoropropyl)amino]-7H-pyrrolo[2,3-d]pyrimidin-5-yl]phenyl)methyl]piperazin-1-yl]ethoxy)ethoxy]propyl]-9H-pyrido[2,3-b]indol-9-yl)piperidine-2,6-dione]",20 to 50
5,"Cn1c(=O)n([C@H]2CCC(=O)NC2=O)c2ccc(CCCN3CC(C4CCN(Cc5ccc(-c6cn([C@H]7CC[C@H](O)CC7)c7nc(NCCC(F)(F)F)ncc67)cc5)CC4)C3)cc21 [I-136, 3-[3-methyl-2-oxo-5-[3-(3-[1-[(4-[7-[trans-4-hydroxycyclohexyl]-2-[(3,3,3-trifluoropropyl)amino]pyrrolo[2,3-d]pyrimidin-5-yl]phenyl)methyl]piperidin-4-yl]azetidin-1-yl)propyl]-1,3-benzodiazol-1-y1]piperidine-2,6-dione; tris(formic acid)]",> 50
6,"Cn1c(=O)n(C2CCC(=O)NC2=O)c2ccc(CCCN3CCCC(N4CCN(Cc5ccc(-c6cn([C@H]7CC[C@H](O)CC7)c7nc(NCCC(F)(F)F)ncc67)cc5)CC4)C3)cc21 (stereo partly drawn) [I-118, 3-[3-methyl-2-oxo-5-[3-(3-[4-[(4-[7-[trans-4-hydroxycyclohexy1]-2-[(3,3,3-trifluoropropyl)amino]-7H-pyrrolo[2,3-d]pyrimidin-5-yl]phenyl)methyl]piperazin-1-y1]piperidin-1-y1)propyl]-2,3-dihydro-1H-1,3-benzodiazol-1-yl]piperidine-2,6-dione; formic acid]",20 to 50
7,"Cn1c(=O)n([C@H]2CCC(=O)NC2=O)c2ccc(CCCOCCCN3CCN(Cc4ccc(-c5cn([C@H]6CC[C@@](C)(O)CC6)c6nc(NCCC(F)(F)F)ncc56)cc4)CC3)cc21 [I-141, 3-[3-methyl-2-oxo-5-[3-(3-[4-[(4-[7-[cis-4-hydroxy-4-methylcyclohexyl]-2-[(3,3,3-trifluoropropyl)amino]pyrrolo[2,3-d]pyrimidin-5-y1]phenyl)methyl]piperazin-1-yl]propoxy)propyl]-1,3-benzodiazol-1-yl]piperidine-2,6-dione]",> 50
8,"Cn1c(=O)n(C2CCC(=O)NC2=O)c2ccc(CCOCCN3CCCC(N4CCN(Cc5ccc(-c6cn([C@H]7CC[C@H](O)CC7)c7nc(NCCC(F)(F)F)ncc67)cc5)CC4)C3)cc21 (stereo partly drawn) [I-131, 3-(3-methyl-2-oxo-5-[2-[2-(3-[4-[(4-[7-[trans-4-hydroxycyclohexyl]-2-[(3,3,3-trifluoropropyl)amino]-7H-pyrrolo[2,3-d]pyrimidin-5-yl]phenyl)methyl]piperazin-1-y1]piperidin-1-yl)ethoxy]ethyl]-2,3-dihydro-1H-1,3-benzodiazol-1-y1)piperidine-2,6-dione; formic acid]",> 50
9,"O=C1CC[C@H](n2c3ccc(NCCOCCOCCNCc4ccc(-c5cn([C@H]6CC[C@H](O)CC6)c6nc(NCCC(F)(F)F)ncc56)cc4)cc3c3cccnc32)C(=O)N1 [I-99, 3-[6-[11-(4-[7-[trans-4-hydroxycyclohexyl]-2-[(3,3,3-trifluoropropyl)amino]-7H-pyrrolo[2,3-d]pyrimidin-5-yl]phenyl)-4,7-dioxa-1,10-diazaundecan-1-y1]-9H-pyrido[2,3-b]indol-9-yl]piperidine-2,6-dione; trihydrochloride]",> 50

# Other lines, results leading:
row,Dmax [%],SMILES
1,< 20,"O=C(c1ccc(CNCc2ccc(-c3ccc4c(cnn4CC4CC4)c3)cc2)cc1)N1CC(C2CCN(Cc3ccc(-c4cn([C@H]5CC[C@H](O)CC5)c5nc(NCCC(F)(F)F)ncc45)cc3)CC2)C1 [I-181, trans-4-[5-[4-([4-[1-(4-[[([4-[1-(Cyclopropylmethyl)indazol-5-yl]phenyl]methyl)amino]methyl]benzoyl)azetidin-3-yl]piperidin-1-yl]methyl)phenyl]-2-[(3,3,3-trifluoropropyl)amino]pyrrolo[2,3-d]pyrimidin-7-yl]cyclohexan-1-ol]"
2,< 20,"CN(C)c1cccc2c(S(=O)(=O)Nc3cccc(-c4cnc(NCCOCCOCCN5CCN(Cc6ccc(-c7cn([C@H]8CC[C@H](O)CC8)c8nc(NCCC(F)(F)F)ncc78)cc6)CC5)nc4N4CCC(c5ccccc5)C4C(=O)O)c3)cccc12 (stereo partly drawn) [I-168, 1-(5-[3-[5-(Dimethylamino)naphthalene-1-sulfonamido]phenyl]-2-([2-[2-(2-[4-[(4-[7-[trans-4-hydroxycyclohexyl]-2-[(3,3,3-trifluoropropyl)amino]pyrrolo[2,3-d]pyrimidin-5-yl]phenyl)methyl]piperazin-1-yl]ethoxy)ethoxy]ethyl]amino)pyrimidin-4-yl)-3-phenylpyrrolidine-2-carboxylic acid]"
3,> 50,"Cc1ncsc1-c1ccc(CNC(=O)[C@@H]2C[C@@H](O)CN2C(=O)[C@@H](NC(=O)COCCOCCOCCN2CCN(Cc3ccc(-c4cn([C@H]5CC[C@H](O)CC5)c5nc(NCCC(F)(F)F)ncc45)cc3)CC2)C(C)(C)C)cc1 [I-166, (2S,4R)-1-[(2S)-3,3-dimethyl-2-(2-[2-[2-(2-[4-[(4-[7-[trans-4-hydroxycyclohexyl]-2-[(3,3,3-trifluoropropyl)amino]pyrrolo[2,3-d]pyrimidin-5-yl]phenyl)methyl]piperazin-1-yl]ethoxy)ethoxy]ethoxy]acetamido)butanoyl]-4-hydroxy-N-[[4-(4-methyl-1,3-thiazol-5-yl)phenyl]methyl]pyrrolidine-2-carboxamide]"
4,> 50,"CCC[C@H](C)Nc1ncc2c(-c3ccc(CN4CCN(CCCOC5CN(Cc6ccc7c(c6)n(C)c(=O)n7C6CCC(=O)NC6=O)C5)CC4)cc3)cn([C@H]3CC[C@H](O)CC3)c2n1 (stereo partly drawn) [I-178, 3-(3-methyl-2-oxo-5-[[3-(3-[4-[(4-[2-[(2S)-pentan-2-ylamino]-7-[trans-4-hydroxycyclohexyl]pyrrolo[2,3-d]pyrimidin-5-yl]phenyl)methyl]piperazin-1-yl]propoxy)azetidin-1-yl]methyl]-1,3-benzodiazol-1-yl)piperidine-2,6-dione]"
5,20 to 50,"CN1CCN(Cc2ccc(-c3ccc(CO[C@H]4CCC[C@@H]4NC(=O)c4cc(-c5cnn(CCOCCOCCOCCCc6ccc7c(c6)n(C)c(=O)n7C6CCC(=O)NC6=O)c5)cnc4N)cc3)cc2)CC1 (stereo partly drawn) [I-203, 2-Amino-5-(1-[2-[2-(2-[3-[1-(2,6-dioxopiperidin-3-yl)-3-methyl-2-oxo-1,3-benzodiazol-5-yl]propoxy]ethoxy)ethoxy]ethyl]pyrazol-4-yl)-N-[(1S,2S)-2-([4-[(4-methylpiperazin-1-yl)methyl]-[1,1-biphenyl]-4-yl]methoxy)cyclopentyl]pyridine-3-carboxamide]"
